This data set is described as follows: Andersen Cascade Impactor (ACI) evaluation of pMDI spray drug delivery characteristics. In kind it is physicochemical. The method, then: Spray characteristics of the system were evaluated by an Andersen cascade impactor fitted with a USP throat (App. 1, USP 33). […] This was repeated twice. Pre- and post-shot weights were recorded. […] The solutions were analysed by using a UPLC/MS (Ultra Performance Liquid Chromatography/Mass Spectrometry) system for the determination of the drug deposition.

[1] abbreviates: Ex 2/3, Standard MDI, single can, 0.22 mm orifice, mean, n=3.
Setting [2] is: Ex 2, Dual MDI, Formulations 3+4, single 0.22 mm orifice, mean, n=2.
Setting [3] is: Ex 3, Dual MDI, Formulation 3 + placebo Formulation 5, single 0.22 mm orifice, mean, n=3.
The mark [4] stands for this setting: Ex 5, Dual-MDI, Formulations 8+3, single 0.22 mm orifice, mean, n=3.
The mark [5] stands for this setting: Ex 19, dual reservoir-single orifice prototype (FIG. 14B).
Where [6] appears, read: Ex 19, dual reservoir-single orifice prototype (FIG. 14B), BDP/Formoterol 100/6 μg/25 μl + glycopyrronium bromide 12.5 μg/25 μl.
Where [7] appears, read: Ex 20, triple reservoir-single orifice prototype (FIG. 16B).
[8] abbreviates: Ex 20, triple reservoir-single orifice prototype (FIG. 16B), BDP/Formoterol + glycopyrronium bromide + budesonide 50 μg/25 μl.

The values that follow come from patent US20120055467A1, “METERED-DOSE INHALER AND METHOD OF USING THE SAME” (CHIESI FARMACEUTICI S.P.A., priority 2010, published 2012).

SMILES strings stand for the structures.

With `COc1ccc(C[C@@H](C)NC[C@H](O)c2ccc(O)c(NC=O)c2)cc1.COc1ccc(C[C@@H](C)NC[C@H](O)c2ccc(O)c(NC=O)c2)cc1.O=C(O)/C=C/C(=O)O` [Formoterol, Formoterol fumarate], the “Delivered Dose” value reads like this: (Ex 2/3, Standard MDI, single can (BDP 100 μg/50 μl or formoterol fumarate 6 μg/50 μl), 0.22 mm orifice, mean, n=3) 4.1 µg; (Ex 2, Dual MDI, Formulation 3 (formoterol fumarate 6 μg/25 μl) + Formulation 4 (BDP 100 μg/25 μl, glycerol) mixed, single 0.22 mm orifice, mean, n=2) 3.2 µg; (Ex 3, Dual MDI, Formulation 3 (formoterol 6 μg/25 μl) + placebo Formulation 5 (glycerol), single 0.22 mm orifice, mean, n=3) 4.2 µg; (Ex 5, Dual-MDI, Formulation 8 (budesonide 400 μg/63 μl) + Formulation 3 (formoterol 6 μg/25 μl), single 0.22 mm orifice, mean, n=3) 3.5 ± 0.7 µg; under setting [5], 3.6 µg; under setting [7], 3.3 µg. The “FPD ≦ 5 μm” value by setting is: under setting [1], 2.1 µg; under setting [2], 1.9 µg; under setting [3], 2.7 µg; under setting [4], 1.9 ± 0.2 µg. Also, the FPF is 51.9% under setting [1]; 61.1% under setting [2]; 64.0% under setting [3]; 53.6 ± 6.6% under setting [4]; 44.3% under setting [5]; 33.9% under setting [7]. Besides, the MMAD by setting is: under setting [1], 0.9 μm; under setting [2], 2.1 μm; under setting [3], 1.5 μm; under setting [4], 1.7 ± 0.1 μm; under setting [5], 1.3 μm; under setting [7], 1.5 μm. The FPD worked out at 1.6 µg under setting [5] and 1.1 µg under setting [7]. Also, the “Metered Dose” value is, setting by setting: under setting [6], 5.7 µg; under setting [8], 5.2 µg.
As to `C[N+]1(C)CCC(OC(=O)C(O)(c2ccccc2)C2CCCC2)C1` (stereo not drawn) [Glycopyrronium bromide], under setting [5], the “Delivered Dose” value was 7.9 µg, the FPD was 3.5 µg, the FPF came to 44.1% and the MMAD stood at 1.3 μm. Moreover, the “Metered Dose” value under setting [6] was 11.3 µg. Under setting [7], the “Delivered Dose” value turned out to be 6.9 µg, the FPD amounted to 2.2 µg, the FPF is 32.4% and the MMAD was found to be 1.4 μm. Besides, the “Metered Dose” value under setting [8] worked out at 10.8 µg.
